According to article PMC12090182, “Repurposing of the RIPK1-Selective Benzo[1,4]oxazepin-4-one Scaffold for the Development of a Type III LIMK1/2 Inhibitor” (ACS Chemical Biology, 2025):

Tests used:
Assay type in all cases: cell-based
[1] = target: CAMK2A (Homo sapiens, UniProt Q9UQM7); conditions: HEK-293T; 1 μM inhibitor, HEK293T cells
In short: (§1)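 HEK293T cells reverse-transfected with K192 kinase-NanoLuc vectors (FuGene HD) and expressed for 20 h. Tracer K10 added at kit-recommended concentrations, inhibitor at 1 μM in alternate wells. Filtered luminescence read at 450 nm donor and 610 nm acceptor; occupancy calculated per kinase.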

[2] = target: CDK20 (Homo sapiens, UniProt Q8IZL9); conditions: HEK-293T; 1 μM inhibitor, HEK293T cells
In short: as §1

[3] = target: CDKL3 (Homo sapiens, UniProt Q8IVW4); conditions: HEK-293T; 1 μM inhibitor, HEK293T cells
In short: as §1

[4] = target: CSNK1G2 (Homo sapiens, UniProt P78368); conditions: HEK-293T; 1 μM inhibitor, HEK293T cells
Chain of CSNK1G2 (P78368 whole entry): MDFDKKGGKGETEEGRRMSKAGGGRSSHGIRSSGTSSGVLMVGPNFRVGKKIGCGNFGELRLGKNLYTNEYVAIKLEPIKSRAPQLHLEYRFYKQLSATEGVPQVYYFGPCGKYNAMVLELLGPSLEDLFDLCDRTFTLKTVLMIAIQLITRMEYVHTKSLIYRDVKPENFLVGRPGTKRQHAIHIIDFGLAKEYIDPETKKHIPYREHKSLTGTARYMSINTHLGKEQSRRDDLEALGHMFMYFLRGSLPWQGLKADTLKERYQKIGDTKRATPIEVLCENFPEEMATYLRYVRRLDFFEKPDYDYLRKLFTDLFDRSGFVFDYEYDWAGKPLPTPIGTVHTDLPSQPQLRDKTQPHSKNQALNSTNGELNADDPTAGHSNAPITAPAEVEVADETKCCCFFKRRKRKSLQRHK
In short: as §1

[5] = target: CSNK2A2 (Homo sapiens, UniProt P19784); conditions: HEK-293T; 1 μM inhibitor, HEK293T cells
Chain of CSNK2A2 (P19784 whole entry): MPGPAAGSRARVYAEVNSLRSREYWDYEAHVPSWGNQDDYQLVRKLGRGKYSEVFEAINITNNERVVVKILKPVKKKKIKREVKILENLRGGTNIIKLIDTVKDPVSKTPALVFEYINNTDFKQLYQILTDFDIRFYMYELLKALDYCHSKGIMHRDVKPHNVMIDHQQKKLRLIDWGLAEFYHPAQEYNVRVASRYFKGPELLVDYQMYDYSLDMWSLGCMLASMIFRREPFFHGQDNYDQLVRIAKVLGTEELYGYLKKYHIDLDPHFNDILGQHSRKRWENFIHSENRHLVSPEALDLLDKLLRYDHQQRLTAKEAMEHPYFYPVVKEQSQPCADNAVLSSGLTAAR
In short: as §1

[6] = target: DAPK2 (Homo sapiens, UniProt Q9UIK4); conditions: HEK-293T; 1 μM inhibitor, HEK293T cells
In short: as §1

[7] = target: EPHA6 (Homo sapiens, UniProt Q9UF33); conditions: HEK-293T; 1 μM inhibitor, HEK293T cells
In short: as §1

[8] = target: EPHB1 (Homo sapiens, UniProt P54762); conditions: HEK-293T; 1 μM inhibitor, HEK293T cells
In short: as §1

[9] = target: HIPK4 (Homo sapiens, UniProt Q8NE63); conditions: HEK-293T; 1 μM inhibitor, HEK293T cells
Chain of HIPK4 (Q8NE63 whole entry): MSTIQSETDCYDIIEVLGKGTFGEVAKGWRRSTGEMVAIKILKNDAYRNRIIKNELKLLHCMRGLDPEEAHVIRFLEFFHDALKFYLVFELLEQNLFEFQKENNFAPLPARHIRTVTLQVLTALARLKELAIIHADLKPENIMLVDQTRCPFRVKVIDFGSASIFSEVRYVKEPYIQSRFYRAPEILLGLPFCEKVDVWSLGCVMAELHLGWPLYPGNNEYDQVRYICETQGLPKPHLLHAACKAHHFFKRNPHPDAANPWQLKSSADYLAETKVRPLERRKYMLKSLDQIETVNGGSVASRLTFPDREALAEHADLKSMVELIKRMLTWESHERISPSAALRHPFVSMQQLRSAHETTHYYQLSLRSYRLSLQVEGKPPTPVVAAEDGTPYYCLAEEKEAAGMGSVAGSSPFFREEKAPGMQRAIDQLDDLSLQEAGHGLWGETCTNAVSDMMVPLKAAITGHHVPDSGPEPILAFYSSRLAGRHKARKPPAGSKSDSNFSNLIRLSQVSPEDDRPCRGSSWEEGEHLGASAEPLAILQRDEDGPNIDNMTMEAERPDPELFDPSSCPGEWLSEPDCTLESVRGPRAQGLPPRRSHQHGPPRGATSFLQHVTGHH
In short: as §1

[10] = target: IKBKE (Homo sapiens, UniProt Q14164); conditions: HEK-293T; 1 μM inhibitor, HEK293T cells
In short: as §1

[11] = target: INSR (Homo sapiens, UniProt P06213); conditions: HEK-293T; 1 μM inhibitor, HEK293T cells
In short: as §1

[12] = target: LTK (Homo sapiens, UniProt P29376); conditions: 1 μM inhibitor, HEK293T cells
In short: as §1

[13] = target: MAP3K4 (Homo sapiens, UniProt Q9Y6R4); conditions: HEK-293T; 1 μM inhibitor, HEK293T cells
In short: as §1

[14] = target: MAP3K9 (Homo sapiens, UniProt P80192); conditions: HEK-293T; 1 μM inhibitor, HEK293T cells
Chain of MAP3K9 (P80192 whole entry): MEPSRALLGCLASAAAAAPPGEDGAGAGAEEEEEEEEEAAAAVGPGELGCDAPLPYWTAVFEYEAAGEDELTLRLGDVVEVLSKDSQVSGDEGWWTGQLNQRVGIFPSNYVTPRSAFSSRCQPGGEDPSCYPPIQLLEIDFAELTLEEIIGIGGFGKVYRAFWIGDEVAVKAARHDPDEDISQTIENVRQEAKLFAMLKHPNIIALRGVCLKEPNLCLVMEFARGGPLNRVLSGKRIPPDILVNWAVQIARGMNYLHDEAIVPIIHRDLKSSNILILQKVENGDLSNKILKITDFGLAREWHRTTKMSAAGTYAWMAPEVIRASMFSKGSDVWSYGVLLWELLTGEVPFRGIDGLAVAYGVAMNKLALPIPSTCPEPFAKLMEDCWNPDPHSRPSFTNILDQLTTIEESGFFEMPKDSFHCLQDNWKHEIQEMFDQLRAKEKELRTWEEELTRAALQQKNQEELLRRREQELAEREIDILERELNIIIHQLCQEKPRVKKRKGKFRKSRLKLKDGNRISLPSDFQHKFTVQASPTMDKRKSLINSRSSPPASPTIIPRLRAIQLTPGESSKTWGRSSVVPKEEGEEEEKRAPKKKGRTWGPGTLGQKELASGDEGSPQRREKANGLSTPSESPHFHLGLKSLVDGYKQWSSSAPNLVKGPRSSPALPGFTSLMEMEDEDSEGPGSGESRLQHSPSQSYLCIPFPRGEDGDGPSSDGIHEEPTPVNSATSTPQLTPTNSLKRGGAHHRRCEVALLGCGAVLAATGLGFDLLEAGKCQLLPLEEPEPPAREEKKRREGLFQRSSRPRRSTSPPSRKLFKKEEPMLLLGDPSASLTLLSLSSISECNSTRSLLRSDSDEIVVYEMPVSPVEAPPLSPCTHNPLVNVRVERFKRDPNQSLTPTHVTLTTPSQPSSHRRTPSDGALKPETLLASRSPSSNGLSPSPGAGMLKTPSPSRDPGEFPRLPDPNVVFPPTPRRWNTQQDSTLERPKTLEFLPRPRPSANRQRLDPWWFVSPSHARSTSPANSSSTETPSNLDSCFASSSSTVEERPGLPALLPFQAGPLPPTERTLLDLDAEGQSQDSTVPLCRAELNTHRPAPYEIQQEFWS
In short: as §1

[15] = target: MAP4K2 (Homo sapiens, UniProt Q12851); conditions: HEK-293T; 1 μM inhibitor, HEK293T cells
Chain of MAP4K2 (Q12851 whole entry): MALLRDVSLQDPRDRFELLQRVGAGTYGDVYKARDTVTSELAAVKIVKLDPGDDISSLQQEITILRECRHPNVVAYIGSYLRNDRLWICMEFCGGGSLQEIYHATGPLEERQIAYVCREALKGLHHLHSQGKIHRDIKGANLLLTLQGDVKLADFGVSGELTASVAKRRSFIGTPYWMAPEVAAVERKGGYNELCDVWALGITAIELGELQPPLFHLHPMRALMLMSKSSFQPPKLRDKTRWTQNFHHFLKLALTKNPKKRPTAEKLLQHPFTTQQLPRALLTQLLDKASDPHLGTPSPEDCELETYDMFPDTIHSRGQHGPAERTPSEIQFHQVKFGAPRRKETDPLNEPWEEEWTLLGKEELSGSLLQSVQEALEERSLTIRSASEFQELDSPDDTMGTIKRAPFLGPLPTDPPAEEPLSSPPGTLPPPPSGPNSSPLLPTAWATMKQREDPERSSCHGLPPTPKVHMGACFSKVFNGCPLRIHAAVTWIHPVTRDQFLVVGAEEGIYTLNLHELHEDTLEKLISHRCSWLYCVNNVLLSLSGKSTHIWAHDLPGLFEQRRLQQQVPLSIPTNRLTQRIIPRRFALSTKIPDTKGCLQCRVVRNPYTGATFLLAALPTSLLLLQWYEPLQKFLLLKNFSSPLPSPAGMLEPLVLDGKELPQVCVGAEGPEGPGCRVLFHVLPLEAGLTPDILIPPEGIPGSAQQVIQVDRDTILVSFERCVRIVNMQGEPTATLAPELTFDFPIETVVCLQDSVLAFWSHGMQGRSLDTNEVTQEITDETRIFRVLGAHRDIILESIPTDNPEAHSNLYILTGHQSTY
In short: as §1

[16] = target: MAPK11 (Homo sapiens, UniProt Q15759); conditions: HEK-293T; 1 μM inhibitor, HEK293T cells
In short: as §1

[17] = target: MAPK4 (Homo sapiens, UniProt P31152); conditions: HEK-293T; 1 μM inhibitor, HEK293T cells
In short: as §1

[18] = target: MAPK6 (Homo sapiens, UniProt Q16659); conditions: HEK-293T; 1 μM inhibitor, HEK293T cells
In short: as §1

[19] = target: MAST4 (Homo sapiens, UniProt O15021); conditions: HEK-293T; 1 μM inhibitor, HEK293T cells
In short: as §1

[20] = target: MET (Homo sapiens, UniProt P08581); conditions: HEK-293T; 1 μM inhibitor, HEK293T cells
In short: as §1

[21] = target: MLTK (Homo sapiens, UniProt Q9NYL2); conditions: HEK-293T; 1 μM inhibitor, HEK293T cells
In short: as §1

[22] = target: MYLK2 (Homo sapiens, UniProt Q9H1R3); conditions: HEK-293T; 1 μM inhibitor, HEK293T cells
In short: as §1

[23] = target: NEK1 (Homo sapiens, UniProt Q96PY6); conditions: HEK-293T; 1 μM inhibitor, HEK293T cells
In short: as §1

[24] = target: NEK11 (Homo sapiens, UniProt Q8NG66); conditions: HEK-293T; 1 μM inhibitor, HEK293T cells
In short: as §1

[25] = target: NEK5 (Homo sapiens, UniProt Q6P3R8); conditions: HEK-293T; 1 μM inhibitor, HEK293T cells
In short: as §1

[26] = target: NLK (Homo sapiens, UniProt Q9UBE8); conditions: HEK-293T; 1 μM inhibitor, HEK293T cells
In short: as §1

[27] = target: PKMYT1 (Homo sapiens, UniProt Q99640); conditions: HEK-293T; 1 μM inhibitor, HEK293T cells
In short: as §1

[28] = target: PRKACB (Homo sapiens, UniProt P22694); conditions: HEK-293T; 1 μM inhibitor, HEK293T cells
In short: as §1

[29] = target: PTK2B (Homo sapiens, UniProt Q14289); conditions: HEK-293T; 1 μM inhibitor, HEK293T cells
In short: as §1

[30] = target: RET (Homo sapiens, UniProt P07949); conditions: HEK-293T; 1 μM inhibitor, HEK293T cells
In short: as §1

[31] = target: RIOK2 (Homo sapiens, UniProt Q9BVS4); conditions: HEK-293T; 1 μM inhibitor, HEK293T cells
Chain of RIOK2 (Q9BVS4 whole entry): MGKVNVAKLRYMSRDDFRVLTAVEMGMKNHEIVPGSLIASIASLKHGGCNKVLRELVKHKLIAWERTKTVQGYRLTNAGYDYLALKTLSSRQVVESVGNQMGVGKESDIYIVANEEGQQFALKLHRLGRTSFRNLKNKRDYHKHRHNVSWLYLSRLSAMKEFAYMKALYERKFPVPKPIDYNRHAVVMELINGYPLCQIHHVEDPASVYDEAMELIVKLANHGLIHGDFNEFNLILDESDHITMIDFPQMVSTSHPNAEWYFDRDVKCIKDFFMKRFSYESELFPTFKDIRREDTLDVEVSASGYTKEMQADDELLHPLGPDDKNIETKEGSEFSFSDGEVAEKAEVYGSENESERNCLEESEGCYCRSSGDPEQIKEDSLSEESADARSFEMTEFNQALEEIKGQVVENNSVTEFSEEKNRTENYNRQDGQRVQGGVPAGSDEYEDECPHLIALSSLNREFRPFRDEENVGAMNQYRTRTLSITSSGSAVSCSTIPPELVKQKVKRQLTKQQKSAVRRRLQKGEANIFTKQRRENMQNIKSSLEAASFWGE
In short: as §1

[32] = target: RPS6KA1 (Homo sapiens, UniProt Q15418); conditions: HEK-293T; 1 μM inhibitor, HEK293T cells
In short: as §1

[33] = target: RPS6KA6 (Homo sapiens, UniProt Q9UK32); conditions: HEK-293T; 1 μM inhibitor, HEK293T cells
In short: as §1

[34] = target: SLK (Homo sapiens, UniProt Q9H2G2); conditions: HEK-293T; 1 μM inhibitor, HEK293T cells
In short: as §1

[35] = target: SRMS (Homo sapiens, UniProt Q9H3Y6); conditions: HEK-293T; 1 μM inhibitor, HEK293T cells
In short: as §1

[36] = target: STK38L (Homo sapiens, UniProt Q9Y2H1); conditions: HEK-293T; 1 μM inhibitor, HEK293T cells
Chain of STK38L (Q9Y2H1 whole entry): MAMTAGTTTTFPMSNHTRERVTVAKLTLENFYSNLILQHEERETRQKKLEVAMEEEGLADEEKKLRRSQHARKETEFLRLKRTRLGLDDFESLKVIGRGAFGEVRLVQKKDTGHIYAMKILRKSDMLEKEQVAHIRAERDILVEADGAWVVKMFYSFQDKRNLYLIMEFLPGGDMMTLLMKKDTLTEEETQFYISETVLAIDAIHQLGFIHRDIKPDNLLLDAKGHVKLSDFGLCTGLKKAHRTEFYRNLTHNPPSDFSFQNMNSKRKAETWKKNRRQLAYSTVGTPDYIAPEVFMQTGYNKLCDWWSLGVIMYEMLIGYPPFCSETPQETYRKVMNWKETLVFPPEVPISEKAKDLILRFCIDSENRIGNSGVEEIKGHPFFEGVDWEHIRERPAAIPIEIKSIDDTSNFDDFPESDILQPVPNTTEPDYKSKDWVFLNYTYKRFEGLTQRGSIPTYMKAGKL
In short: as §1

[37] = target: TXK (Homo sapiens, UniProt P42681); conditions: HEK-293T; 1 μM inhibitor, HEK293T cells
In short: as §1

Chain of CAMK2A (Q9UQM7 whole entry): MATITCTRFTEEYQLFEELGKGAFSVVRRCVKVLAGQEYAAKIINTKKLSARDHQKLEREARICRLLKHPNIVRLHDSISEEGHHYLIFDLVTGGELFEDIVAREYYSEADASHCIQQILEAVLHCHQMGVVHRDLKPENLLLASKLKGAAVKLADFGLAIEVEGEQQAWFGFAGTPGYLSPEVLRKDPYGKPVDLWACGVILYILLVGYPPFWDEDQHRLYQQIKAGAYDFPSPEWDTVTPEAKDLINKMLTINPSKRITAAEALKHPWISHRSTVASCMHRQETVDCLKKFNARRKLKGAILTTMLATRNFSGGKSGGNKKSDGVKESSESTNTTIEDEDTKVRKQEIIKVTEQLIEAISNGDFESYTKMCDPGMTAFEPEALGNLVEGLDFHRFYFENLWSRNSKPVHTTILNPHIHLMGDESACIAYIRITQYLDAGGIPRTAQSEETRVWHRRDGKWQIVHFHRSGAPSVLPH

CN1C(=O)[C@@H](N2CCc3c(nn(Cc4ccccc4)c3C(N)=O)C2=O)COc2cc(Cl)ccc21 [Compound 10, (S)-2-benzyl-6-(8-chloro-5-methyl-4-oxo-2,3,4,5-tetrahydrobenzo[b][1,4]oxazepin-3-yl)-7-oxo-4,5,6,7-tetrahydro-2H-pyrazolo[3,4-c]pyridine-3-carboxamide]
receptor occupancy at 1 µM [1]: -6.57%
receptor occupancy at 1 µM [2]: 0.735%
receptor occupancy at 1 µM [3]: 4.18%
receptor occupancy at 1 µM [4]: 3.57%
receptor occupancy at 1 µM [5]: 1.08%
receptor occupancy at 1 µM [6]: -5.62%
receptor occupancy at 1 µM [7]: -0.834%
receptor occupancy at 1 µM [8]: 0.755%
receptor occupancy at 1 µM [9]: 1.53%
receptor occupancy at 1 µM [10]: 6.88%
receptor occupancy at 1 µM [11]: 4.94%
receptor occupancy at 1 µM [12]: -4.01%
receptor occupancy at 1 µM [13]: 5.69%
receptor occupancy at 1 µM [14]: 8.3%
receptor occupancy at 1 µM [15]: -0.43%
receptor occupancy at 1 µM [16]: -1.99%
receptor occupancy at 1 µM [17]: -10.7%
receptor occupancy at 1 µM [18]: -8.43%
receptor occupancy at 1 µM [19]: -4.29%
receptor occupancy at 1 µM [20]: 4.93%
receptor occupancy at 1 µM [21]: -2.56%
receptor occupancy at 1 µM [22]: 4.26%
receptor occupancy at 1 µM [23]: 8.46%
receptor occupancy at 1 µM [24]: 10.1%
receptor occupancy at 1 µM [25]: -1.37%
receptor occupancy at 1 µM [26]: 5.94%
receptor occupancy at 1 µM [27]: -7.45%
receptor occupancy at 1 µM [28]: 0.396%
receptor occupancy at 1 µM [29]: -1.12%
receptor occupancy at 1 µM [30]: -7.79%
receptor occupancy at 1 µM [31]: -2.88%
receptor occupancy at 1 µM [32]: 5.2%
receptor occupancy at 1 µM [33]: 7.04%
receptor occupancy at 1 µM [34]: 19%
receptor occupancy at 1 µM [35]: 10.1%
receptor occupancy at 1 µM [36]: 7.45%
receptor occupancy at 1 µM [37]: 4.81%
